Laboratory results taken from US11414431B2, “Substituted pyrazolo[1,5-a]pyrimidines as TYK2 inhibitors” (Nimbus Lakshmi, Inc., priority 2018, dated 2022).

Test system: IL-12 induced STAT4 phosphorlyation mediated by TYK2/JAK2
Assay: IL-12 Induced pSTAT4 in Human PBMC
Assay type: cell-based
Conditions: 1.7 ng/mL IL-12 for 30 minutes
In short: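 pSTAT4 and total STAT4 quantified by MSD in lysates of cryopreserved human PBMC after 30-minute stimulation with 1.7 ng/mL IL-12 (final). Compound was added 1 hr beforehand at 37° C, 0.1% DMSO final.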

IC50	IC50 (0.5 h)	Compound
< 0.1 µM		CNc1cc(Nc2cccn(-c3ncccc3F)c2=O)nc2c(C(=O)NC3CC[C@H]3OC)cnn12 (stereo partly shown) [Compound I-265]
< 0.1 µM		CNc1cc(-c2cn(C3CN(C)C3)c3ncccc23)nc2c(C(=O)NC3CCC3(F)F)cnn12 (stereo not shown) [Compound I-676]
< 0.1 µM		CNc1cc(-c2cn([C@H]3COC[C@@H]3OC)c3ncccc23)nc2c(C(=O)N[C@@H]3CC[C@@H]3F)cnn12 [Compound I-530]
< 0.1 µM		CNc1cc(Nc2cccn([C@H]3[C@@H]4COC[C@@H]43)c2=O)nc2c(C(=O)N[C@@H]3C[C@H]3OC)cnn12 [Compound I-25, 5-((1-((1R,5S,6r)-3-Oxabicyclo[3.1.0]hexan-6-yl)-2-oxo-1,2-dihydropyridin-3-yl)amino)-N-((1R,2R)-2-methoxycyclopropyl)-7-(methylamino)pyrazolo[1,5-a]pyrimidine-3-carboxamide]
< 0.1 µM		CNc1cc(-c2cn([C@H]3CCN(C)C3)c3ncccc23)nc2c(C(=O)N[C@H]3CC[C@@H]3OC)cnn12 [Compound I-619]
	< 0.1 µM	CNc1cc(Nc2cccn([C@@H]3CC[C@H]3OC)c2=O)nc2c(C(=O)N[C@H]3CC[C@@H]3O)cnn12 [Compound I-20, N-((1S,2S)-2-Hydroxycyclobutyl)-5-((1-((1R,2R)-2-methoxycyclobutyl)-2-oxo-1,2-dihydropyridin-3-yl)amino)-7-(methylamino)pyrazolo[1,5-a]pyrimidine-3-carboxamide]
< 0.1 µM		CNc1cc(Nc2cccn(C3CCOCC3)c2=O)nc2c(C(=O)NC3CC[C@H]3F)cnn12 (stereo partly shown) [Compound I-191]
0.1 to 0.5 µM		CNc1cc(-c2cn(CC(=O)N3CCOCC3)c3ncccc23)nc2c(C(=O)N[C@H]3CC[C@@H]3OC)cnn12 [Compound I-963]
< 0.1 µM		CNc1cc(-c2cn(C3CN(C)C3)c3ncccc23)nc2c(C(=O)NC3CC[C@@H]3F)cnn12 (stereo partly shown) [Compound I-513]
< 0.1 µM		CNc1cc(-c2cn(CCOC)c3ncccc23)nc2c(C(=O)N[C@H]3CC[C@@H]3OC)cnn12 [Compound I-923]
< 0.1 µM		CNc1cc(-c2cnc3n([C@@H]4CN(C)C[C@H]4OC)cccc2-3)nc2c(C(=O)N[C@H]3CC[C@@H]3OC)cnn12 [Compound I-944]
< 0.1 µM		CNc1cc(Nc2cccn([C@H]3[C@@H]4COC[C@@H]43)c2=O)nc2c(C(=O)NC3CC[C@H]3F)cnn12 (stereo partly shown) [Compound I-203]
< 0.1 µM		CNc1cc(-c2cn([C@H]3[C@@H]4COC[C@@H]43)c3ncccc23)nc2c(C(=O)N[C@H]3CC[C@@H]3O)cnn12 [Compound I-915]
< 0.1 µM		CNc1cc(-c2cn([C@@H]3CCC4(C3)OCCO4)c3ncccc23)nc2c(C(=O)N[C@H]3CC[C@@H]3OC)cnn12 [Compound I-806]
< 0.1 µM		CNc1cc(Nc2cccn([C@H]3C[C@@H](OC)C3)c2=O)nc2c(C(=O)N[C@H]3CC[C@@H]3F)cnn12 [Compound I-174]
< 0.1 µM		CNc1cc(Nc2cccn([C@@H]3CCC[C@@H]3O)c2=O)nc2c(C(=O)N[C@@H]3CC[C@H]3F)cnn12 [Compound I-181]
< 0.1 µM		CNc1cc(-c2cn([C@@H]3CCN(C)C3)c3ncccc23)nc2c(C(=O)N[C@H]3CC[C@@H]3OC)cnn12 [Compound I-616]
< 0.1 µM		CNc1cc(-c2cn([C@H]3COC[C@@H]3OC)c3ncccc23)nc2c(C(=O)NC3CC[C@H]3F)cnn12 (stereo partly shown) [Compound I-528]
< 0.1 µM		CNc1cc(-c2cnc3n([C@@H]4COC[C@H]4OC)cccc2-3)nc2c(C(=O)NC3CC[C@H]3F)cnn12 (stereo partly shown) [Compound I-841]
0.1 to 0.5 µM		CNc1cc(-c2cn(CC(=O)N3CCC3)c3ncccc23)nc2c(C(=O)N[C@H]3CC[C@@H]3OC)cnn12 [Compound I-929]
0.1 to 0.5 µM		CNc1cc(-c2cn([C@H]3CC(=O)N(C4CCOCC4)C3)c3ncccc23)nc2c(C(=O)NC3CC[C@@H]3OC)cnn12 (stereo partly shown) [Compound I-1027]
< 0.1 µM		CNc1cc(-c2cnc3n([C@H]4COC[C@@H]4O)cccc2-3)nc2c(C(=O)NC3CCC3(F)F)cnn12 (stereo partly shown) [Compound I-898]
0.1 to 0.5 µM		CNc1cc(-c2cn([C@@H]3CC(=O)N(C4CCOCC4)C3)c3ncccc23)nc2c(C(=O)N[C@H]3CC[C@@H]3OC)cnn12 [Compound I-1028]
< 0.1 µM		CNc1cc(-c2cn([C@H]3CCN(C)C3)c3ncccc23)nc2c(C(=O)NC3CC[C@@H]3OC)cnn12 (stereo partly shown) [Compound I-618]
< 0.1 µM		CNc1cc(Nc2cccn([C@H]3CC[C@@H](OC)CC3)c2=O)nc2c(C(=O)N[C@@H]3CC[C@@]3(C)OC)cnn12 [Compound I-431]
< 0.1 µM		CNc1cc(-c2cn([C@H]3CC3(F)F)c3ncccc23)nc2c(C(=O)N[C@@H]3COC[C@@H]3O)cnn12 [Compound I-711]

Second part, the compound before the results:

Compound	IC50	IC50 (0.5 h)
CNc1cc(Nc2cccn([C@H]3CCC[C@@H](C#N)C3)c2=O)nc2c(C(=O)N[C@@H]3CC[C@H]3OC)cnn12 [Compound I-258]	< 0.1 µM	
CNc1cc(-c2cnc3n([C@H]4COC[C@@H]4OC)cccc2-3)nc2c(C(=O)N[C@@H]3CC[C@H]3OC)cnn12 [Compound I-881]	< 0.1 µM	
CNc1cc(Nc2cccn(C3CCOCC3)c2=O)nc2c(C(=O)NC3CCC3(F)F)cnn12 (stereo not shown) [Compound I-309]	< 0.1 µM	
CNc1cc(-c2cn([C@@H]3CCOC3)c3ncccc23)nc2c(C(=O)N[C@H]3CC[C@@H]3OC)cnn12 [Compound I-610]	< 0.1 µM	
CNc1cc(-c2cn([C@H]3COC[C@@H]3O)c3ncccc23)nc2c(C(=O)NC3CCC3(F)F)cnn12 (stereo partly shown) [Compound I-695]	< 0.1 µM	
CNc1cc(Nc2cccn(C3CCOCC3)c2=O)nc2c(C(=O)NC3CC[C@@H]3F)cnn12 (stereo partly shown) [Compound I-188]	< 0.1 µM	
CNc1cc(-c2cn([C@H]3CN(C)C[C@@H]3F)c3ncccc23)nc2c(C(=O)NC3CC[C@@H]3OC)cnn12 (stereo partly drawn) [Compound I-639, 5-(1-((3S,4S)-4-Fluoro-1-methylpyrrolidin-3-yl)-1H-pyrrolo[2,3-b]pyridin-3-yl)-N-((trans-1,2)-2-methoxycyclobutyl)-7-(methylamino)pyrazolo[1,5-a]pyrimidine-3-carboxamide]		< 0.1 µM
CNc1cc(Nc2cccn([C@@H]3CCC[C@@H]3O)c2=O)nc2c(C(=O)NC3CC[C@@H]3F)cnn12 (stereo partly shown) [Compound I-179]	< 0.1 µM	
CNc1cc(Nc2cccn([C@H]3C[C@@H](OC)C3)c2=O)nc2c(C(=O)N[C@H]3CCC3(F)F)cnn12 [Compound I-296]	< 0.1 µM	
CNc1cc(Nc2cccn([C@H]3C[C@@H]3F)c2=O)nc2c(C(=O)N[C@H]3CC[C@H]3O)cnn12 [Compound I-12, 5-((1-((1S,2S)-2-Fluorocyclopropyl)-2-oxo-1,2-dihydropyridin-3-yl)amino)-N-((1S,2R)-2-hydroxycyclobutyl)-7-(methylamino)pyrazolo[1,5-a]pyrimidine-3-carboxamide]		< 0.1 µM
CNc1cc(-c2cn(C3CCOCC3)c3ncccc23)nc2c(C(=O)N[C@H]3CCC3(F)F)cnn12 [Compound I-699]	< 0.1 µM	
CNc1cc(Nc2cccn([C@H]3C[C@H](F)C3)c2=O)nc2c(C(=O)NC3CCC3(F)F)cnn12 (stereo partly shown) [Compound I-283]	< 0.1 µM	
CNc1cc(Nc2cccn([C@H]3C[C@H](F)C3)c2=O)nc2c(C(=O)NC3CC[C@H]3O)cnn12 (stereo partly drawn) [Compound I-11, 5-((1-((1r,3S)-3-Fluorocyclobutyl)-2-oxo-1,2-dihydropyridin-3-yl)amino)-N-(2-hydroxycyclobutyl)-7-(methylamino)pyrazolo[1,5-a]pyrimidine-3-carboxamide]		0.1 to 0.5 µM
CNc1cc(Nc2cccn(C3CCN(CCF)CC3)c2=O)nc2c(C(=O)N[C@H]3CC[C@@H]3F)cnn12 [Compound I-237]	< 0.1 µM	
CNc1cc(-c2cnc3n([C@H]4CCOC4)cccc2-3)nc2c(C(=O)N[C@H]3CC[C@@H]3OC)cnn12 [Compound I-1002]	< 0.1 µM	
CNc1cc(Nc2cccn([C@H]3C[C@@H](OC)C3)c2=O)nc2c(C(=O)N[C@H]3CC[C@@H]3OC)cnn12 [Compound I-253]	< 0.1 µM	
CNc1cc(Nc2cccn([C@H]3C[C@@H](OC)C3)c2=O)nc2c(C(=O)NC3CCC3(F)F)cnn12 (stereo partly shown) [Compound I-295]	< 0.1 µM	
CNc1cc(Nc2cccn([C@H]3CCCOC3)c2=O)nc2c(C(=O)N[C@@H]3CCC3(F)F)cnn12 [Compound I-314]	< 0.1 µM	
CNc1cc(Nc2cccn([C@H]3[C@@H]4COC[C@@H]43)c2=O)nc2c(C(=O)N[C@@H]3CC[C@H]3OC)cnn12 [Compound I-262]	< 0.1 µM	
CNc1cc(-c2cn(C3CCCC3)c3ncccc23)nc2c(C(=O)NC3CCC3(F)F)cnn12 (stereo not shown) [Compound I-683]	< 0.1 µM	
CNc1cc(-c2cn(C3CCCC3)c3ncccc23)nc2c(C(=O)N[C@H]3CCC3(F)F)cnn12 [Compound I-685]	< 0.1 µM	
CNc1cc(-c2cn(CC(=O)N(C)C)c3ncccc23)nc2c(C(=O)N[C@H]3CC[C@@H]3OC)cnn12 [Compound I-921]	< 0.1 µM	
CNc1cc(Nc2cccn([C@H]3C[C@@H]3F)c2=O)nc2c(C(=O)N[C@@H]3C[C@H]3OC)cnn12 [Compound I-133]	< 0.1 µM	
O=C(NC1CCC1(F)F)c1cnn2c3c(c(-c4cn([C@H]5C[C@H](O)C5)c5ncccc45)nc12)OCCN3 (stereo partly drawn) [Compound I-775, N-(2,2-Difluorocyclobutyl)-5-(1-((1r,3S)-3-hydroxycyclobutyl)-1H-pyrrolo[2,3-b]pyridin-3-yl)-2,3-dihydro-1H-pyrazolo[5′,1′:2,3]pyrimido [5,4-b][1,4]oxazine-7-carboxamide]		< 0.1 µM
CNc1cc(-c2cn([C@H]3COC[C@H]3F)c3ncccc23)nc2c(C(=O)N[C@H]3CC[C@@H]3OC)cnn12 [Compound I-625]	< 0.1 µM	
CNc1cc(-c2cn([C@H]3CC3(F)F)c3ncccc23)nc2c(C(=O)N[C@H]3CC[C@H]3O)cnn12 [Compound I-552]	< 0.1 µM	
